Measured values from a compilation of properties of binary mixtures (doi:10.1016/j.fluid.2020.112621).

Test: xn = mol fraction of the nth substance listed
Conditions: 101 kPa

CCCC[n+]1ccn(C)c1.COP(=O)([O-])OC + CC(=O)O.CC(=O)[O-].CC[NH+](CC)CCO
x2 = 0
Conditions	viscosity [mPa·s]
278.15 K	3503
288.15 K	1361.1
293.15 K	895
303.15 K	426
308.15 K	305.8
313.15 K	224.9
318.15 K	168.9
323.15 K	129.4
328.15 K	100.9
333.15 K	79.9
338.15 K	64.25
343.15 K	52.35
348.15 K	43.18
363.15 K	25.86
368.15 K	22.22
373.15 K	19.25

CCCC[n+]1ccn(C)c1.O=S(=O)([N-]S(=O)(=O)C(F)(F)F)C(F)(F)F + CC(=O)[O-].CCCC[NH2+]CCO
x2 = 0
Conditions	viscosity [mPa·s]
283.15 K	109
298.15 K	51.73
303.15 K	41.8
308.15 K	34.3
313.15 K	28.55
323.15 K	20.5
328.15 K	17.64
333.15 K	15.33
338.15 K	13.43
343.15 K	11.85
348.15 K	10.53
353.15 K	9.41
358.15 K	8.46
363.15 K	7.65
368.15 K	6.95
373.15 K	6.34

CCCC[n+]1ccn(C)c1.COP(=O)([O-])OC + CCC(=O)O.CCC(=O)[O-].CC[NH+](CC)CCO
x2 = 0
Conditions	viscosity [mPa·s]
278.15 K	3503
288.15 K	1361.1
293.15 K	895
298.15 K	609
303.15 K	426
308.15 K	305.8
313.15 K	224.9
318.15 K	168.9
323.15 K	129.4
333.15 K	79.9
338.15 K	64.25
348.15 K	43.18
353.15 K	36.02
358.15 K	30.38
363.15 K	25.86
368.15 K	22.22

CCCC[n+]1ccn(C)c1.COP(=O)([O-])OC + CCCC(=O)[O-].CC[NH+](CC)CCO
x2 = 0
Conditions	viscosity [mPa·s]
278.15 K	3503
283.15 K	2142
288.15 K	1361.1
293.15 K	895
303.15 K	426
308.15 K	305.8
313.15 K	224.9
323.15 K	129.4
333.15 K	79.9
338.15 K	64.25
343.15 K	52.35
353.15 K	36.02
358.15 K	30.38
363.15 K	25.86
368.15 K	22.22

CCCC[n+]1ccn(C)c1.COP(=O)([O-])OC + CCCCC(=O)[O-].CC[NH+](CC)CCO
x2 = 0
Conditions	viscosity [mPa·s]
278.15 K	3503
283.15 K	2142
288.15 K	1361.1
293.15 K	895
298.15 K	609
308.15 K	305.8
313.15 K	224.9
318.15 K	168.9
333.15 K	79.9
338.15 K	64.25
343.15 K	52.35
353.15 K	36.02
363.15 K	25.86

CCCC[n+]1ccn(C)c1.COP(=O)([O-])OC + CCCCCC(=O)O.CCCCCC(=O)[O-].CC[NH+](CC)CCO
x2 = 0
Conditions	viscosity [mPa·s]
278.15 K	3503
283.15 K	2142
288.15 K	1361.1
293.15 K	895
308.15 K	305.8
313.15 K	224.9
323.15 K	129.4
328.15 K	100.9
338.15 K	64.25
343.15 K	52.35
348.15 K	43.18
353.15 K	36.02
368.15 K	22.22
373.15 K	19.25

CC(=O)O.CC(=O)[O-].CC[NH+](CC)CCO + CCCC[n+]1ccn(C)c1.COP(=O)([O-])OC
viscosity [mPa·s]
Conditions	x1 = 0.0748	x1 = 0.3316	x1 = 0.4263	x1 = 0.5275	x1 = 0.6343	x1 = 0.7493	x1 = 0.8567	x1 = 1
278.15 K	2020	–	363	–	329	314	310	340
283.15 K	1280.5	315	254.3	234.7	229	–	210	227
288.15 K	840	224.3	183.7	–	164	157.9	146.3	156.1
293.15 K	–	164.3	135.3	124	120.6	–	104.7	110.4
298.15 K	396	123.7	102.2	–	–	88	–	80.2
303.15 K	–	95.2	79	72.4	70.3	67.9	57.8	–
308.15 K	208	–	62.2	57	55.2	–	44.3	45.3
313.15 K	155.8	58.3	48.55	–	–	41.14	34.65	35.12
318.15 K	119.1	48.01	40.43	36.97	35.71	34.54	–	27.71
323.15 K	92.7	39.18	33.11	–	–	28.27	–	22.22
328.15 K	–	32.29	–	25.04	24.08	–	18.26	18.08
333.15 K	58.8	24.59	20.72	18.82	–	–	15.16	14.9
338.15 K	–	22.48	19.2	17.53	16.79	16.24	12.72	12.45
343.15 K	39.38	18.97	16.24	14.82	14.16	–	10.79	10.49
348.15 K	32.81	16.13	13.83	12.6	–	11.59	9.24	–
353.15 K	27.63	12.97	11.07	10.04	9.54	9.16	7.98	7.67
358.15 K	23.49	11.89	10.22	–	8.82	8.46	–	–
363.15 K	20.16	10.32	8.87	8.06	7.63	7.29	6.09	–
368.15 K	17.45	9.01	7.75	–	–	6.33	5.37	5.09
373.15 K	15.23	7.79	6.7	6.06	5.71	5.43	4.76	4.5

CCCCCC(=O)O.CCCCCC(=O)[O-].CC[NH+](CC)CCO + CCCC[n+]1ccn(C)c1.COP(=O)([O-])OC
viscosity [mPa·s]
Conditions	x1 = 0.0684	x1 = 0.1429	x1 = 0.2213	x1 = 0.3088	x1 = 0.3966	x1 = 0.4995	x1 = 0.6088	x1 = 0.7258	x1 = 0.8535	x1 = 1
278.15 K	2021	1198.1	–	529	412	343	–	255.9	217.2	179
283.15 K	–	787	520	365	288.7	–	211.6	–	159	132.6
288.15 K	841	535	–	–	207.7	176.1	155.1	137.2	118.9	–
293.15 K	570	374	259.3	189.1	152.9	–	116	103.5	–	76.9
298.15 K	398	268.2	–	–	114.9	98.9	88.5	79.5	70.1	60
303.15 K	285.4	197.1	–	107	88.1	76.3	–	62.1	55.1	–
308.15 K	209.4	–	108.8	82.8	68.7	59.9	54.11	49.21	43.94	38.14
313.15 K	–	113.2	84.6	–	54.51	47.69	43.28	39.55	35.51	31
318.15 K	120	88.2	66.9	52.14	–	38.54	35.09	32.2	–	25.48
323.15 K	93.3	69.8	53.69	42.29	–	31.55	28.81	26.52	24.02	21.16
328.15 K	73.8	56.08	43.7	34.74	29.57	–	23.92	22.08	20.07	–
333.15 K	59.25	45.69	36.01	28.88	24.7	21.89	20.08	18.56	16.93	15.02
338.15 K	–	37.68	–	24.28	20.85	18.53	17.01	15.76	14.4	–
343.15 K	–	31.44	–	–	17.77	15.82	14.54	13.48	12.35	11.01
348.15 K	33.12	26.52	21.54	17.66	15.28	13.63	12.53	11.63	10.67	–
353.15 K	27.9	22.58	–	15.27	13.25	–	10.89	–	9.27	–
358.15 K	23.74	19.41	–	13.3	11.58	10.34	9.52	8.84	8.11	–
363.15 K	20.39	16.82	13.98	11.67	10.19	9.1	8.38	7.77	7.13	6.36
368.15 K	17.66	14.68	12.3	10.31	–	8.06	7.42	6.87	6.3	5.61
373.15 K	15.41	12.91	–	9.17	8.04	7.18	6.6	6.11	5.59	4.96
